Data reported in PubChem BioAssay AID330 (DTP/NCI, 2004).
“And” between values parts separate entries of the source, which are not always exact repeats. Equal values may be shown once. Inconclusive results and toxic doses are left out.

System: P388 leukemia ip, CD2F1 mice, survival T/C
Test: NCI In Vivo Anticancer Drug Screen. Data for tumor model P388 Leukemia (intraperitoneal) in CD2F1 (CDF1) mice
Conditions: endpoint: median survival time, higher = longer survival
Procedure, shortened: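 Mice carrying the transplanted tumor received test compound or vehicle. Survival was recorded in each group, and the value is the treated-group measurement divided by that of the vehicle-treated control group.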

[1] = dose: 12.5 mg/kg/injection, schedule: Q01DX009 (ip), vehicle: saline
[2] = dose: 25.0 mg/kg/injection, schedule: Q01DX009 (ip), vehicle: saline
[3] = dose: 50.0 mg/kg/injection, schedule: Q01DX009 (ip), vehicle: saline

OCc1c(CO)c(-c2ccc(Cl)cc2)n2c1CCC2
T/C (dose: 12.5 mg/kg/injection, schedule: Q01DX005 (ip), vehicle: distilled water + Tween-80): 120 % of control
T/C (dose: 25.0 mg/kg/injection, schedule: Q01DX005 (ip), vehicle: distilled water + Tween-80): 111 % of control and 120 % of control
T/C (dose: 50.0 mg/kg/injection, schedule: Q01DX005 (ip), vehicle: distilled water + Tween-80): 112 % of control
T/C (dose: 100.0 mg/kg/injection, schedule: Q01DX005 (ip), vehicle: distilled water + Tween-80): 156 % of control
T/C (dose: 200.0 mg/kg/injection, schedule: Q01DX005 (ip), vehicle: distilled water + Tween-80): 186 % of control
T/C (dose: 400.0 mg/kg/injection, schedule: Q01DX005 (ip), vehicle: distilled water + Tween-80): 157 % of control

Cc1nn(C)c(Cl)c1C(=O)Nc1ccccc1
T/C (dose: 50.0 mg/kg/injection, schedule: Q01DX005 (ip), vehicle: saline with Tween-80): 96 % of control
T/C (dose: 60.0 mg/kg/injection, schedule: Q01DX005 (ip), vehicle: saline with Tween-80): 98 % of control
T/C (dose: 100.0 mg/kg/injection, schedule: Q01DX005 (ip), vehicle: saline with Tween-80): 96 % of control
T/C (dose: 200.0 mg/kg/injection, schedule: Q01DX005 (ip), vehicle: saline with Tween-80): 90 % of control
T/C (dose: 240.0 mg/kg/injection, schedule: Q01DX005 (ip), vehicle: saline with Tween-80): 92 % of control

COP(=O)(OC)C(O)C1CCCCC1 (stereo not drawn)
T/C [1]: 100 % of control
T/C [2]: 116 % of control
T/C [3]: 100 % of control and 106 % of control
T/C (dose: 200.0 mg/kg/injection, schedule: Q01DX009 (ip), vehicle: saline): 99 % of control

CCCCCCCCCCCCOP(=O)(N1CC1(C)C)N1CC1(C)C (stereo not drawn)
T/C (dose: 2.0 mg/kg/injection, schedule: Q01DX009 (ip), vehicle: saline with Tween-80): 108 % of control and 113 % of control
T/C (dose: 4.0 mg/kg/injection, schedule: Q01DX009 (ip), vehicle: saline with Tween-80): 103 % of control and 108 % of control
T/C (dose: 8.0 mg/kg/injection, schedule: Q01DX009 (ip), vehicle: saline with Tween-80): 114 % of control and 117 % of control
T/C (dose: 16.0 mg/kg/injection, schedule: Q01DX009 (ip), vehicle: saline with Tween-80): 102 % of control and 117 % of control

Oc1ccc(O)c(Cl)c1Cl
T/C [1]: 105 % of control
T/C [2]: 98 % of control
T/C (dose: 25.0 mg/kg/injection, schedule: Q04DX003 (ip), vehicle: saline): 106 % of control and 113 % of control
T/C [3]: 96 % of control
T/C (dose: 50.0 mg/kg/injection, schedule: Q04DX003 (ip), vehicle: saline): 100 % of control and 120 % of control
T/C (dose: 100.0 mg/kg/injection, schedule: Q01DX009 (ip), vehicle: saline): 104 % of control
T/C (dose: 100.0 mg/kg/injection, schedule: Q04DX002 (ip), vehicle: saline + alcohol): 108 % of control
T/C (dose: 100.0 mg/kg/injection, schedule: Q04DX003 (ip), vehicle: saline): 101 % of control and 118 % of control
T/C (dose: 200.0 mg/kg/injection, schedule: Q04DX002 (ip), vehicle: saline + alcohol): 108 % of control
T/C (dose: 200.0 mg/kg/injection, schedule: Q04DX003 (ip), vehicle: saline): 105 % of control
T/C (dose: 400.0 mg/kg/injection, schedule: Q04DX002 (ip), vehicle: saline + alcohol): 99 % of control

COC(=O)C(O)c1cccc(OC)c1 (stereo not drawn)
T/C (dose: 100.0 mg/kg/injection, schedule: Q04DX003 (ip), vehicle: saline with Tween-80): 113 % of control
T/C (dose: 200.0 mg/kg/injection, schedule: Q04DX003 (ip), vehicle: saline with Tween-80): 100 % of control
T/C (dose: 400.0 mg/kg/injection, schedule: Q04DX003 (ip), vehicle: saline with Tween-80): 109 % of control

Cn1c2ccccc2c2nnc(N/N=C/c3cccs3)nc21
T/C (dose: 400.0 mg/kg/injection, schedule: Q04DX002 (ip), vehicle: saline with Tween-80): 105 % of control and 91 % of control

CNC(C)(C(=O)O)C(=O)Nc1ccccc1 (stereo not drawn)
T/C (dose: 100.0 mg/kg/injection, schedule: Q01DX001 (ip), vehicle: saline): 112 % of control
T/C (dose: 200.0 mg/kg/injection, schedule: Q01DX001 (ip), vehicle: saline): 123 % of control

N#Cc1ccc(NN=NCCSCCO)cc1
T/C (dose: 12.5 mg/kg/injection, schedule: Q01DX009 (ip), vehicle: distilled water + alcohol): 96 % of control
T/C (dose: 25.0 mg/kg/injection, schedule: Q01DX009 (ip), vehicle: distilled water + alcohol): 104 % of control
T/C (dose: 50.0 mg/kg/injection, schedule: Q01DX009 (ip), vehicle: distilled water + alcohol): 104 % of control
T/C (dose: 100.0 mg/kg/injection, schedule: Q01DX009 (ip), vehicle: distilled water + alcohol): 109 % of control

Cc1c(O)c(O)c2c(c1O)N=C(Cl)/C2=C\N=NC(N)=S
T/C (dose: 100.0 mg/kg/injection, schedule: Q01DX001 (ip), vehicle: Klucel (hydroxypropylcellulose) (HPC)): 99 % of control
T/C (dose: 200.0 mg/kg/injection, schedule: Q01DX001 (ip), vehicle: Klucel (hydroxypropylcellulose) (HPC)): 95 % of control
T/C (dose: 400.0 mg/kg/injection, schedule: Q01DX001 (ip), vehicle: Klucel (hydroxypropylcellulose) (HPC)): 106 % of control
